Assay results reported in patent US4621094A, “Anti-histaminic pyridyl compounds” (priority 1984, dated 1986).

Biological target: T1, H1 histamine receptor (Cavia porcellus, UniProt P31389)
T1 construct: The longitudinal muscle was isolated from the intact ileum of guinea pigs; from tissue; host or cells: ileum longitudinal muscle, guinea pig (Hartley, male 250-400 g)
Experiment: Antihistaminic activity: antagonism of histamine concentration-response curves in isolated guinea pig ileum longitudinal muscle (Schild plot)
Format: cell-based, guinea pigs
Conditions: negative log of molar antagonist concentration shifting the control histamine concentration-response curve 2X to the right; tissue incubated one hour with test compound; organ bath, 300 mg tension; read-out: pA2 (converted)
Description: The longitudinal muscle was isolated from the intact ileum of guinea pigs (Hartley, male 250-400 g) and placed in an organ bath under 300 mg tension. After one hour of equilibration, cumulative concentration-response curves (Van Rossum, J. M., Arch. Int. Pharmacodyn. Ther. 143, 299-330, 1963) to histamine were obtained. Following washing, the tissues were incubated for one hour with the test compound and then a second histamine concentration-response curve was run. Shifts to the right of the agonist concentration-response curve produced by the antagonists were used to construct Schild plots (Arunlakshana, O. And Schild, H. O., Br. J. Pharmacol: 14, 48-58, 1959 ). Regression of Log (dr-1) on Log [B], where dr is an equiactive response in the presence and absence of antagonist and [B] is the molar concentration of antagonist, allowed an estimate of pA2, i.e. the negative log of the concentration of antagonist which shifts the control histamine concentration-response curve 2X to the right.

T1 sequence (P31389 whole entry): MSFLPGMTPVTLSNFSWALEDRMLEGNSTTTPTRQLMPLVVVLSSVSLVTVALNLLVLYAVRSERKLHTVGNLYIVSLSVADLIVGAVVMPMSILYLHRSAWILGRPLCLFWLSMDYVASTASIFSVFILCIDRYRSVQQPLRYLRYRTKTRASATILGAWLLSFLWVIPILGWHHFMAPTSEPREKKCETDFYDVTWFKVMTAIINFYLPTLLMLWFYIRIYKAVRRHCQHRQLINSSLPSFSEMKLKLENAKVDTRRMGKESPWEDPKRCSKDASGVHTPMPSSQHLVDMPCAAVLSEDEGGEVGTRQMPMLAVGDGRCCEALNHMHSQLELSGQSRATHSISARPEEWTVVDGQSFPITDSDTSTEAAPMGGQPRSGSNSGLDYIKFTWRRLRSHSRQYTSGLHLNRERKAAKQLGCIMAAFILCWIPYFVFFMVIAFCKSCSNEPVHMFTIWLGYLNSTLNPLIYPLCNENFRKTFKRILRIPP

Kb: 2 µM
SMILES: CN(C)CCC(c1ccc(Cl)cc1)c1cccc(/C=C/C(=O)O)n1 (stereo not shown) [(E)-6-(1-(4-chlorophenyl)-3-dimethylaminopropyl)-2-pyridyl acrylic acid]
